Source: ChEMBL document CHEMBL2380242, “Discovery of novel orally bioavailable GPR40 agonists” (Bioorg Med Chem Lett, 2013)
Active and inactive are the calls of the source. The rule behind the calls is not given here.

Key:
[1] = system: Rhesus monkey; experiment: Antidiabetic activity in obese type 2 diabetic rhesus monkey model assessed as inhibition of blood glucose excursion at 20 mg/kg, po administered 1 to 2 hrs prior to dextrose challenge measured for 60 mins by IVGTT relative to control; assay type: functional; details: Macaca mulatta
[2] = system: Mus musculus; experiment: Antidiabetic activity in high fat feasted ICR mouse assessed as reduction of blood glucose excursion at 20 mg/kg, po administered 15 mins prior to dextrose challenge measured for 120 mins by OGTT; assay type: functional, organism-based; design: dose 20 mg/kg
[3] = system: Rhesus monkey; experiment: Antidiabetic activity in obese type 2 diabetic rhesus monkey model assessed as inhibition of blood glucose excursion at 20 mg/kg, po administered 1 to 2 hrs prior to dextrose challenge measured for 120 mins by IVGTT relative to control; assay type: functional; details: Macaca mulatta
[4] = target: Free fatty acid receptor 1 (Rattus norvegicus, UniProt Q8K3T4); experiment: Agonist activity at GPR40 in rat INS-1 cells assessed as glucose-stimulated insulin secretion; assay type: cell-based, INS1
[5] = target: T1, Free fatty acid receptor 1 (Homo sapiens, UniProt O14842); experiment: Agonist activity at human GPR40 transfected in CHO cells by calcium flux assay relative to TAK-875; assay type: functional, cell-based
[6] = system: Mus musculus; experiment: Antidiabetic activity in high fat feasted ICR mouse assessed as inhibition of blood glucose excursion administered 15 mins prior to dextrose challenge measured for 120 mins by OGTT relative to control; assay type: functional
[7] = target: T1, Free fatty acid receptor 1; experiment: Agonist activity at human GPR40 transfected in CHO cells by calcium flux assay; assay type: functional, cell-based
[8] = system: Rhesus monkey; experiment: Antidiabetic activity in obese type 2 diabetic rhesus monkey model assessed as inhibition of blood glucose excursion at 6 mg/kg, po administered 1 to 2 hrs prior to dextrose challenge measured for 60 mins by IVGTT relative to control; assay type: functional; details: Macaca mulatta
[9] = AUC in beagle dog at 1 mg/kg, po; assay type: ADME, organism-based, Canis lupus familiaris; design: dose 1 mg/kg, route oral; details: plasma
[10] = Inhibition of CYP450 (unknown origin); assay type: ADME, Homo sapiens
[11] = AUC in rat at 5 mg/kg, po; assay type: ADME, organism-based; design: dose 5 mg/kg, route oral; details: plasma
[12] = Plasma clearance in cynomolgus monkey at 6 mg/kg, po; assay type: ADME, organism-based, Macaca fascicularis; design: dose 6 mg/kg, route oral
[13] = Plasma clearance in rat at 5 mg/kg, po; assay type: ADME, organism-based; design: dose 5 mg/kg, route oral
[14] = system: Rattus norvegicus; experiment: Volume of distribution in rat at 5 mg/kg, po; assay type: ADME, organism-based; design: dose 5 mg/kg, route oral; details: in vivo
[15] = Plasma clearance in beagle dog at 1 mg/kg, po; assay type: ADME, organism-based, Canis lupus familiaris; design: dose 1 mg/kg, route oral
[16] = system: Mus musculus; experiment: Antidiabetic activity in high fat feasted ICR mouse assessed as inhibition of blood glucose excursion at 50 mg/kg, po administered 15 mins prior to dextrose challenge measured for 120 mins by OGTT relative to control; assay type: functional
[17] = target: T2, Free fatty acid receptor 3 (Homo sapiens) (UniProt O14843); experiment: Agonist activity at GPR41 (unknown origin) up to 10 uM
T2 sequence (whole entry): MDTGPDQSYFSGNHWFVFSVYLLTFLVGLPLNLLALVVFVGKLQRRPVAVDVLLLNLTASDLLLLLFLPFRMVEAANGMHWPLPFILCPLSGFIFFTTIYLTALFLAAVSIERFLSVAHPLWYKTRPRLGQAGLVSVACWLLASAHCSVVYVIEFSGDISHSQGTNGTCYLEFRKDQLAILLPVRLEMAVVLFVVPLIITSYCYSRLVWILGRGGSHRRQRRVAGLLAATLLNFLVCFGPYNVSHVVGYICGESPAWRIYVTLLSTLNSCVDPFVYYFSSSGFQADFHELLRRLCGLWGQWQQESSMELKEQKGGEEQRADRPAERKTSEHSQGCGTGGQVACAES

[18] = system: Cynomolgus monkey; experiment: Volume of distribution in cynomolgus monkey at 6 mg/kg, po; assay type: ADME, organism-based, Macaca fascicularis; design: dose 6 mg/kg, route oral; details: in vivo
[19] = Half life in cynomolgus monkey at 6 mg/kg, po; assay type: ADME, organism-based, Macaca fascicularis; design: dose 6 mg/kg, route oral; details: in vivo
[20] = AUC in cynomolgus monkey at 6 mg/kg, po; assay type: ADME, organism-based, Macaca fascicularis; design: dose 6 mg/kg, route oral; details: plasma
[21] = Half life in rat at 5 mg/kg, po; assay type: ADME, organism-based; design: dose 5 mg/kg, route oral; details: in vivo
[22] = target: T3, Free fatty acid receptor 2 (Homo sapiens) (UniProt O15552); experiment: Agonist activity at GPR43 (unknown origin) up to 10 uM
T3 sequence (whole entry): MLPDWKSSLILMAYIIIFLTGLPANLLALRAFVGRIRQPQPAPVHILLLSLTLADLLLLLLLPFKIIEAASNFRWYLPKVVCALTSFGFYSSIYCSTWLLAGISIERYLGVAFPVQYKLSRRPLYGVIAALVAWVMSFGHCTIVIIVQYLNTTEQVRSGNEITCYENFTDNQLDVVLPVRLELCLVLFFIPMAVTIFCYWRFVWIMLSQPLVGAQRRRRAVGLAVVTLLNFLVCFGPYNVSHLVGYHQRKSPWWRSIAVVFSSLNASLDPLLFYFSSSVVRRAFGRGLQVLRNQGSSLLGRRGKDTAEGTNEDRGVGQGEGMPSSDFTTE

[23] = Half life in beagle dog at 1 mg/kg, po; assay type: ADME, organism-based, Canis lupus familiaris; design: dose 1 mg/kg, route oral; details: in vivo
[24] = Cmax in rat at 5 mg/kg, po; assay type: ADME, organism-based; design: dose 5 mg/kg, route oral; details: in vivo
[25] = target: T4, Free fatty acid receptor 4 (Homo sapiens) (UniProt Q5NUL3); experiment: Agonist activity at GPR120 (unknown origin) up to 10 uM
T4 sequence (whole entry): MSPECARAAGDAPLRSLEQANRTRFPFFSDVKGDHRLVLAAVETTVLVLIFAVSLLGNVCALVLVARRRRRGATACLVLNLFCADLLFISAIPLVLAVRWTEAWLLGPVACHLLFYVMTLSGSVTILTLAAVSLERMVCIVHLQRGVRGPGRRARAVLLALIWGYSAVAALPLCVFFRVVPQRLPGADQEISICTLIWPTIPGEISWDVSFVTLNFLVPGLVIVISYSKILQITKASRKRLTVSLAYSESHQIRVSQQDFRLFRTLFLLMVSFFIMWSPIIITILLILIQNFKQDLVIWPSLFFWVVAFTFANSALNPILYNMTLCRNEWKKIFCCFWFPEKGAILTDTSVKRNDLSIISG

[26] = system: Canis familiaris; experiment: Volume of distribution in beagle dog at 1 mg/kg, po; assay type: ADME, organism-based, Canis lupus familiaris; design: dose 1 mg/kg, route oral; details: in vivo
[27] = Lipophilicity, log D of the compound; assay type: physicochemical; details: octanol/water
[28] = target: Free fatty acid receptor 1 (Rattus norvegicus) (UniProt Q8K3T4); experiment: Agonist activity at GPR40 in rat INS-1 cells assessed as glucose-stimulated insulin secretion relative to TAK-875; assay type: cell-based; details: INS1
[29] = Cmax in cynomolgus monkey at 6 mg/kg, po; assay type: ADME, organism-based, Macaca fascicularis; design: dose 6 mg/kg, route oral; details: in vivo
[30] = system: Rhesus monkey; experiment: Antidiabetic activity in obese type 2 diabetic rhesus monkey model assessed as inhibition of blood glucose excursion at 6 mg/kg, po administered 1 to 2 hrs prior to dextrose challenge measured for 120 mins by IVGTT relative to control; assay type: functional; details: Macaca mulatta
[31] = Cmax in beagle dog at 1 mg/kg, po; assay type: ADME, organism-based, Canis lupus familiaris; design: dose 1 mg/kg, route oral; details: in vivo
[32] = Oral bioavailability in rat at 5 mg/kg; assay type: ADME, organism-based; details: in vivo

T1 sequence (O14842 whole entry): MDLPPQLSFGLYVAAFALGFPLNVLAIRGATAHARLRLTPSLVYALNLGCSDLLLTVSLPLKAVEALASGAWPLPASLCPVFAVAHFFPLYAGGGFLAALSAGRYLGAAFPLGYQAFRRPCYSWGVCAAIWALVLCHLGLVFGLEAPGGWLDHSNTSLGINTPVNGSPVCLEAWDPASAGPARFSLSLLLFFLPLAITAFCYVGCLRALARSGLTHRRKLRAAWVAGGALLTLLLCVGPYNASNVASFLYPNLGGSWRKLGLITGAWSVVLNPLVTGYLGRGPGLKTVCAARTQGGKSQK
Chain of Free fatty acid receptor 1 (Rattus norvegicus) (Q8K3T4 whole entry): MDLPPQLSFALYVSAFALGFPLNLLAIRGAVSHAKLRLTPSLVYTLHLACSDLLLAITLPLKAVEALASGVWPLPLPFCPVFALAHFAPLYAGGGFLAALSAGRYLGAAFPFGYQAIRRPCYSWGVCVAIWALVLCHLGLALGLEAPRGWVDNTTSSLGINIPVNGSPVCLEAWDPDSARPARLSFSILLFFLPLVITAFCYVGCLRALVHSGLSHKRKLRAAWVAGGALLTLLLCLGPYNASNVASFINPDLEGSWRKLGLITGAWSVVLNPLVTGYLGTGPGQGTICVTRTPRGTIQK
Chain of Free fatty acid receptor 1 (Rattus norvegicus, UniProt Q8K3T4) (Q8K3T4 whole entry): as above

SMILES	EC50 [4]	Emax [5]	EC50 [7]	AUC [9]	AUC [11]	CL/F [12]	CL/F [13]	Vd [14]	Vd [18]	half-life [19]	AUC [20]	half-life [21]	half-life [23]	Cmax [24]	Emax [28]	Cmax [29]	Cmax [31]	inhibition in vivo at 20 mg/kg [1]	inhibition in vivo at 20 mg/kg [3]	inhibition in vivo at 50 mg/kg [16]	other results
Cc1cc(OCCCS(C)(=O)=O)cc(C)c1-c1cccc(COc2ccc3c(c2)OC[C@H]3CC(=O)O)c1	93 nM	–	–	–	–	–	–	–	–	–	–	–	–	–	–	–	–	14.7%	15%	–	Activity [2]: Active
Cc1ccccc1-c1cccc([C@H]2COc3cc4c(cc3O2)OC[C@H]4CC(=O)O)c1	–	91%	19.1 nM	–	–	–	–	–	–	–	–	–	–	–	–	–	–	–	–	–	inhibition (INH) [6]: 9.7%
O=C(O)C[C@@H]1COc2cc3c(cc21)OC[C@@H](c1cccc(C(F)(F)F)c1)O3	–	99.5%	11.3 nM	47.4 µg·h/mL	427 µg·h/mL	1.67 mL/min/kg	0.167 mL/min/kg	0.23 L/kg	2.38 L/kg	16.4 h	54.7 µg·h/mL	16.1 h	19.1 h	19400 ng/mL	43.6%	7700 ng/mL	2580 ng/mL	–	–	13.3%	bioavailability [32]: 100%

More lines, in order of falling EC50 [7], values ahead:

EC50 [4]	Emax [5]	EC50 [7]	AUC [9]	AUC [11]	CL/F [12]	CL/F [13]	Vd [14]	Vd [18]	half-life [19]	AUC [20]	half-life [21]	half-life [23]	Cmax [24]	Emax [28]	Cmax [29]	Cmax [31]	SMILES	inhibition in vivo at 20 mg/kg [1]	inhibition in vivo at 20 mg/kg [3]	inhibition in vivo at 50 mg/kg [16]	other results
–	87%	34.2 nM	35.6 µg·h/mL	666 µg·h/mL	0.833 mL/min/kg	0.0833 mL/min/kg	0.21 L/kg	0.85 L/kg	12.9 h	126 µg·h/mL	27.5 h	21.1 h	22000 ng/mL	36.8%	19700 ng/mL	2670 ng/mL	O=C(O)C[C@@H]1COc2cc3c(cc21)OC[C@@H](c1cccc(Cl)c1)O3	16.4%	13.2%	11%	inhibition in vivo at 6 mg/kg [8]: 7.71%; IC50 [10]: > 50000 nM; CL/F [15]: 0.333 mL/min/kg; Activity [17]: inactive; Activity [22]: inactive; Activity [25]: inactive; Vd [26]: 0.71 L/kg; logD [27]: < 3; inhibition in vivo at 6 mg/kg [30]: 10.7%
77 nM	120%	13.5 nM	30.6 µg·h/mL	530 µg·h/mL	0.667 mL/min/kg	0.117 mL/min/kg	0.25 L/kg	1.02 L/kg	18 h	136 µg·h/mL	26.8 h	26.4 h	17800 ng/mL	40%	5360 ng/mL	2270 ng/mL	O=C(O)C[C@@H]1COc2cc3c(cc21)OC[C@@H](c1cccc(Br)c1)O3	–	–	4.9%	inhibition in vivo at 6 mg/kg [8]: 32.1%; IC50 [10]: > 50000 nM; CL/F [15]: 0.5 mL/min/kg; Activity [17]: inactive; Activity [22]: inactive; Activity [25]: inactive; Vd [26]: 0.93 L/kg; logD [27]: < 3; inhibition in vivo at 6 mg/kg [30]: 24.4%
